The subject of assay [1] is Staphylococcus aureus. Briefly: In vitro antibacterial activity against constitutively MLS B resistant Staphylococcus aureus SR138 strain encoded by an ermA gene. The format is functional.
Assay [2] deals with Staphylococcus aureus. Briefly: In vitro antibacterial activity against erythromycin-susceptible Staphylococcus aureus 209P-JC strain. It counts as functional.
The subject of assay [3] is Staphylococcus aureus. Briefly: In vitro antibacterial activity against an inducibly MLS B resistant Staphylococcus aureus B1 strain. It counts as functional.
The test system of assay [4] is Streptococcus pneumoniae. Kind of assay: In vitro antibacterial activity against erythromycin efflux resistant Streptococcus pneumoniae 210 strain. The format is functional.
For assay [5], the system named is Enterococcus faecium. Kind of assay: In vitro antibacterial activity against erythromycin-susceptible Enterococcus faecium ATCC 19434 strain. It counts as functional.
The test system of assay [6] is Haemophilus influenzae. Briefly: In vitro antibacterial activity against erythromycin-susceptible Hemophilus influenzae ATCC 43095 strain. The format is functional.
The test system of assay [7] is Mus musculus. Kind of assay: In vivo effective dose against erythromycin susceptible Staphylococcus aureus strain Smith by mouse protection test. It counts as functional.
Assay [8] relates to Enterococcus faecalis. Briefly: In vitro antibacterial activity against erythromycin-susceptible Enterococcus faecalis ATCC 29212 strain. The format is functional.
Assay [9] has as its system Streptococcus pneumoniae. Kind of assay: In vitro antibacterial activity against erythromycin-susceptible Streptococcus pneumoniae IID553 strain. The format is functional.
In assay [10] the test system is Staphylococcus aureus. Briefly: In vivo minimum inhibitory concentration against erythromycin susceptible Staphylococcus aureus Smith strain by mouse protection test. It counts as functional.
Assay [11] deals with Streptococcus pneumoniae. Briefly: In vitro antibacterial activity against MLS-B resistant Streptococcus pneumoniae 221 strain encoded by an erm B gene. The format is functional.
The test system of assay [12] is Mus musculus. Briefly: (§1) In vivo effective dose against erythromycin susceptible Staphylococcus aureus Smith strain by mouse protection test(95% confidence limits). The format is functional.
Assay [13] has as its system Staphylococcus aureus. Kind of assay: In vivo Minimum inhibitory conc against erythromycin susceptible Staphylococcus aureus Smith strain by mouse protection test. It counts as functional.
The subject of assay [14] is Staphylococcus aureus. Kind of assay: In vitro antibacterial activity against constitutively MLS B resistant Staphylococcus aureus SR138 strain. It counts as functional.
In assay [15] the test system is Staphylococcus aureus. Kind of assay: In vitro antibacterial activity against inducibly MLS B resistant Staphylococcus aureus B1 strain. It counts as functional.
Assay [16] has as its system Enterococcus faecium. Kind of assay: In vitro antibacterial activity against erythromycin-susceptible Enterococcus faecium ATCC 19434 strain.
Assay [17] relates to Enterococcus faecalis. Kind of assay: In vitro antibacterial activity against erythromycin-susceptible Enterococcus faecalis ATCC 19434 strain. The format is functional.
The subject of assay [18] is Staphylococcus aureus. The assay is described as §1. The format is functional.
The subject of assay [19] is Enterococcus faecium. Briefly: In vitro antibacterial activity against erythromycin-susceptible Enterococcus faecium ATCC 29212 strain. It counts as functional.
Assay [20] concerns Streptococcus pneumoniae. Kind of assay: In vitro antibacterial activity against constitutively MLS B resistant […] strain encoded by an ermB gene. It counts as functional.
Assay [21] relates to Staphylococcus aureus. Briefly: In vivo Minimum inhibitory conc against erythromycin susceptible Staphylococcus aureus strain Smith by mouse protection test. It counts as functional.
Assay [22] deals with Streptococcus pneumoniae. Briefly: In vitro antibacterial activity against erythromycin- susceptible Streptococcus pneumoniae IID553 strain. It counts as functional.

The structures appear in SMILES notation. ≈ marks a conversion by molar mass, not a printed value.

Consider `CC[C@H]1OC(=O)[C@H](C)[C@@H](OC(C)=O)[C@H](C)[C@@H](OC2O[C@H](C)C[C@H](N(C)C)C2O)[C@@](C)(OC)C[C@@H](C)C(=O)[C@H](C)[C@@H](O)[C@]1(C)O` (stereo partly specified), for which the results for the MIC in assay [1], in assay [2] and in assay [3] were over 100 µg/mL, 50 µg/mL (≈ 79.1 µM) and over 100 µg/mL, respectively.
Take `CC[C@H]1OC(=O)[C@H](C)[C@@H](O)[C@H](C)[C@@H](OC2O[C@H](C)C[C@H](N(C)C)C2O)[C@@](C)(OC)C[C@@H](C)C(=O)[C@H](C)[C@@H](O)[C@]1(C)O` (stereo partly specified): the MIC in [2] is over 100 µg/mL.
For `CC[C@H]1OC(=O)[C@H](C)[C@@H](OC2CCCCO2)[C@H](C)[C@@H](OC2O[C@H](C)C[C@H](N(C)C)C2O)[C@@](C)(OC)C[C@@H](C)C(=O)[C@H](C)[C@@H](O)[C@]1(C)O` (stereo partly specified), the MIC in [1] was over 100 µg/mL; in assay [2], 12.5 µg/mL (≈ 18.5 µM); in assay [3], over 100 µg/mL.
For `CC[C@H]1OC(=O)[C@H](C)[C@@H](OC(=O)Cc2ccc([N+](=O)[O-])cc2)[C@H](C)[C@@H](O[C@@H]2O[C@H](C)C[C@H](N(C)C)[C@H]2O)[C@@](C)(OC)C[C@@H](C)C(=O)[C@H](C)[C@@H](O)[C@]1(C)O`, the MIC in [4] is 0.2 µg/mL (≈ 0.266 µM); in assay [5] it was 0.05 µg/mL (≈ 0.0664 µM); in assay [6], 25 µg/mL (≈ 33.2 µM); in assay [1] it was over 100 µg/mL; in assay [8] it was 0.2 µg/mL (≈ 0.266 µM); in assay [9] it was 0.2 µg/mL (≈ 0.266 µM). Also, the MIC is 0.39 µg/mL (≈ 0.518 µM) in assay [10], 0.2 µg/mL (≈ 0.266 µM) in [2], 0.39 µg/mL (≈ 0.518 µM) in [3] and over 100 µg/mL in assay [11]. For the same compound, the 50% effect level in [7] (ED50) was put at a dose of 15.4 mg/kg.
For `CC[C@H]1OC(=O)[C@H](C)[C@@H](OC(=O)Cc2ccccc2)[C@H](C)[C@@H](O[C@@H]2O[C@H](C)C[C@H](N(C)C)[C@H]2O)[C@@](C)(OC)C[C@@H](C)C(=O)[C@H](C)[C@@H](O)[C@]1(C)O`, the results for the MIC in [1], in assay [2] and in assay [3] were over 100 µg/mL, 0.78 µg/mL (≈ 1.1 µM) and over 100 µg/mL, respectively.
In the case of `CC[C@H]1OC(=O)[C@H](C)[C@@H](OC(=O)CN)[C@H](C)[C@@H](OC2O[C@H](C)C[C@H](N(C)C)C2O)[C@@](C)(OC)C[C@@H](C)C(=O)[C@H](C)[C@@H](O)[C@]1(C)O` (stereo partly specified), the figures for the MIC in assay [1], in [2] and in [3] were over 100 µg/mL, 12.5 µg/mL (≈ 19.3 µM) and over 100 µg/mL, respectively.
For `CC[C@H]1OC(=O)[C@H](C)[C@@H](OC(=O)CC#N)[C@H](C)[C@@H](OC2O[C@H](C)C[C@H](N(C)C)C2O)[C@@](C)(OC)C[C@@H](C)C(=O)[C@H](C)[C@@H](O)[C@]1(C)O` (stereo partly specified), the MIC in assay [1] was over 100 µg/mL; in assay [2], 25 µg/mL (≈ 38.1 µM); in [3] it was over 100 µg/mL.
In turn, `CC[C@H]1OC(=O)[C@H](C)[C@@H](OS(=O)(=O)Cc2ccccc2)[C@H](C)[C@@H](OC2O[C@H](C)C[C@H](N(C)C)C2O)[C@@](C)(OC)C[C@@H](C)C(=O)[C@H](C)[C@@H](O)[C@]1(C)O` (stereo partly specified) yielded an MIC in [2] of over 100 µg/mL.
As for `CC[C@H]1OC(=O)[C@H](C)[C@@H](OC(=O)CNC(=O)OCc2ccccc2)[C@H](C)[C@@H](OC2O[C@H](C)C[C@H](N(C)C)C2O)[C@@](C)(OC)C[C@@H](C)C(=O)[C@H](C)[C@@H](O)[C@]1(C)O` (stereo partly specified), the MIC in [1] was over 100 µg/mL; in assay [2], 3.13 µg/mL (≈ 4.01 µM); in assay [3], over 100 µg/mL.
On to `CC[C@H]1OC(=O)[C@H](C)[C@@H](OC(=O)c2ccc([N+](=O)[O-])cc2)[C@H](C)[C@@H](OC2O[C@H](C)C[C@H](N(C)C)C2O)[C@@](C)(OC)C[C@@H](C)C(=O)[C@H](C)[C@@H](O)[C@]1(C)O` (stereo partly specified), for which the MIC in assay [1] was over 100 µg/mL; in assay [2], 50 µg/mL (≈ 67.7 µM); in assay [3], over 100 µg/mL.
`CC[C@H]1OC(=O)[C@H](C)[C@@H](OC(=O)CNC(=O)OC(C)(C)C)[C@H](C)[C@@H](OC2O[C@H](C)C[C@H](N(C)C)C2O)[C@@](C)(OC)C[C@@H](C)C(=O)[C@H](C)[C@@H](O)[C@]1(C)O` (stereo partly specified): the MIC in [1] is over 100 µg/mL; in assay [2], 12.5 µg/mL (≈ 16.7 µM); in [3] it was over 100 µg/mL.
As for `CC[C@H]1OC(=O)[C@H](C)[C@@H](O[C@H]2C[C@@](C)(OC)[C@@H](O)[C@H](C)O2)[C@H](C)[C@@H](O[C@@H]2O[C@H](C)C[C@H](N(C)C)[C@H]2O)[C@](C)(OC)C[C@@H](C)C(=O)[C@H](C)[C@@H](O)[C@]1(C)O` [CLARITHROMYCIN], the MIC in [4] is 1.56 µg/mL (≈ 2.09 µM); in assay [6], 6.25 µg/mL (≈ 8.36 µM); in assay [13], 0.2 µg/mL (≈ 0.267 µM); in assay [8], 1.56 µg/mL (≈ 2.09 µM); in assay [9] it was 0.05 µg/mL (≈ 0.0668 µM); in assay [14], over 100 µg/mL. In addition, the MIC in assay [15] is over 100 µg/mL; in [2], 0.1 µg/mL (≈ 0.134 µM); in assay [16], 1.56 µg/mL (≈ 2.09 µM); in assay [11] it was over 100 µg/mL. This compound also showed a median effective dose (ED50) in assay [12] of 7.6 mg/kg.
`CC[C@H]1OC(=O)[C@H](C)[C@@H](O[C@H]2C[C@@](C)(OC)[C@@H](O)[C@H](C)O2)[C@H](C)[C@@H](O[C@@H]2O[C@H](C)C[C@H](N(C)C)[C@H]2O)[C@](C)(O)C[C@@H](C)C(=O)[C@H](C)[C@@H](O)[C@]1(C)O` [ERYTHROMYCIN]: the MIC in [4] was 1.56 µg/mL (≈ 2.13 µM); in [6], 6.25 µg/mL (≈ 8.52 µM); in assay [17], 3.13 µg/mL (≈ 4.26 µM); in [19] it was 1.56 µg/mL (≈ 2.13 µM); in assay [20], over 100 µg/mL; in assay [21], 0.2 µg/mL (≈ 0.273 µM). This compound also registered an MIC in [22] of 0.1 µg/mL (≈ 0.136 µM). Moreover, in assay [18], it took a dose of 56.6 mg/kg to reach the 50% effect level (ED50).

A word on the ED50: it is the dose that gives a 50% effect, or the effect in half of the subjects. Higher therefore signals weaker potency.

The record behind these values is ChEMBL document CHEMBL1134276, “Synthesis and antibacterial activity of acylides (3-O-acyl-erythromycin derivatives): a novel class of macrolide antibiotics” (2001).
